Data as given in patent US5458814A, “Substituted naphthopyrans” (Transitions Optical, Inc., priority 1993, dated 1995).

Assay: Photochromic response on optical bench (lambda max, sensitivity, saturation optical density, bleach rate) of naphthopyrans imbibed into test square polymerizates
Type: physicochemical
Conditions: for BLEACH RATE T1/2: time for absorbance to reach one half the highest absorbance after removal of activating light, 75° F., 23.9° C.; for Δ OD @ SATURATION: UV exposure continued for 20 minutes; for Δ OD @ SATURATION / Δ OD/Min SENSITIVITY: diethylene glycol bis(allyl carbonate), 75° F. (23.9° C.); for Δ OD/Min SENSITIVITY: first five (5) seconds of UV exposure, expressed on a per minute basis; for LAMBDA MAX of the activated (colored) form in the visible spectrum: imbibed into diethylene glycol bis(allyl carbonate) composition
Method: Testing was done with selected photochromic naphthopyrans incorporated into test square polymerizates by one of two different imbibition processes. The test square polymerizates were prepared from a diethylene glycol bis(allyl carbonate) composition and measured 1/8 inch (0.3 centimeters)×2 inches (5.1 centimeters)×2 inches (5.1 centimeters). In one of the imbibition processes, the photochromic naphthopyran was dissolved to form a 10 weight percent solution in a 1:9 mixture of ethyl cellulose:toluene. The solution was then spin coated onto the test squares and allowed to dry. […] After cooling, the ethyl cellulose/toluene resin film was removed from the test squares by washing with acetone.
Alternatively, the test squares were imbibed by the following procedure. Each naphthopyran was dissolved into toluene to form a four (4) weight percent solution of the compound. A piece of No. 4 Whatman filter paper was saturated with the naphthopyran toluene solution and allowed to air dry. The dried filter paper was placed on one side of the test square. A piece of untreated filter paper was placed on the other side of the polymeric test square and the resulting sandwich was placed between two flat aluminum metal plates. […] After cooling, the test squares were washed with acetone.
The photochromic squares were tested for photochromic response rates on an optical bench. […] The bench was fitted with a 150 watt Xenon arc lamp, a remote controlled shutter, a copper sulfate bath acting as a heat sink for the arc lamp, a Schott WG-320 nm cut-off filter which removes short wavelength radiation; neutral density filter(s) and a sample holder in which the square to be tested was inserted. A collimated beam of light from a tungsten lamp was passed through the square at a small angle normal to the square. After passing through the square, the light from the tungsten lamp was directed through a photopic filter attached to a detector. The photopic filter passes wavelengths such that the detector mimics the response of the human eye. The output signals from the detector(s) were processed by a radiometer.
Change in optical density (ΔOD) was determined by inserting an imbibed square in the bleached state into the sample holder, adjusting the transmittance scale to 100%, opening the shutter from the Xenon lamp to provide ultraviolet radiation to change the imbibed square from the bleached state to an activated (i.e., darkened) state, measuring the transmittance in the activated state, and calculating the change in optical density according to the formula ΔOD=log(100% Ta) where % Ta is the percent transmittance in the activated state and the logarithm is to the base 10.
The ΔOD/Min, which represents the sensitivity of the photochromic compound's response to UV light, was measured over the first five (5) seconds of UV exposure, then expressed on a per minute basis. The saturation optical density (OD) was taken under identical conditions as the ΔOD/Min, except UV exposure was continued for 20 minutes for the examples in Table 1. The lambda max reported in Table 1 is the wavelength in the visible spectrum at which the maximum absorption of the activated (colored) form of the photochromic compound in a diethylene glycol bis(allyl carbonate) composition occurs.

Row | BLEACH RATE T1/2 (Table 2 comparison) | Compound | BLEACH RATE T1/2 (Table 1) | Δ OD @ SATURATION | Δ OD/Min SENSITIVITY | LAMBDA MAX of the activated (colored) form in the visible spectrum
1 | > 30 min | C1=CC(c2ccccc2)(c2ccccc2)Oc2c1ccc1ccccc21 [Comparative Example 1, 2,2-diphenyl-[2H]-naphtho[1,2-b]pyran, reference compound] | – | – | – | –
2 | 10.7 min | Cc1cc2ccccc2c2c1C=CC(c1ccccc1)(c1ccccc1)O2 [Comparative Example 2, 2,2-diphenyl-5-methyl-[2H]-naphtho[1,2-b]pyran, reference compound] | – | – | – | –
3 | 3.75 min | C1=CC2(Oc3c1ccc1ccccc31)C1CC3CC(C1)CC2C3 (centres unmarked) [Comparative Example 3, 2,2-spiroadamantylene-[2H]-naphtho[1,2-b]pyran, reference compound] | – | – | – | –
4 | > 30 min | COc1ccc(C2(C(C)(C)C)C=Cc3ccc4ccccc4c3O2)cc1 (centres unmarked) [Comparative Example 4, 2-(4-methoxyphenyl)-2-t-butyl-[2H]naphtho[1,2-b]pyran, reference compound] | – | – | – | –
5 | – | COC(=O)c1c2c(c3ccccc3c1O)OC(c1ccc(OC)cc1)(c1ccc(OC)cc1)C=C2 [Example 1, 2,2-bis(4-methoxyphenyl)-5-methoxycarbonyl-6-hydroxy-[2H]-naphtho[1,2-b]pyran] | 3.92 min | 0.18 | 0.47 Δ OD/Min | 497 nm
6 | – | COC(=O)c1c2c(c3ccccc3c1OC)OC(c1ccc(OC)cc1)(c1ccc(OC)cc1)C=C2 [Example 2, 2,2-bis(4-methoxyphenyl)-5-methoxycarbonyl-6-methoxy-[2H]-naphtho[1,2-b]pyran] | 5.08 min | 0.48 | 0.81 Δ OD/Min | 510 nm
7 | – | CCOC(=O)COc1c(C(=O)OC)c2c(c3ccccc13)OC(c1ccc(OC)cc1)(c1ccc(OC)cc1)C=C2 [Example 3, 2,2-bis(4-methoxyphenyl)-5-methoxycarbonyl-6-ethoxycarbonylmethoxy-[2H]-naphtho[1,2-b]pyran] | 3.52 min | 0.44 | 0.79 Δ OD/Min | 508 nm
8 | – | COC(=O)c1c2c(c3ccccc3c1OCC#N)OC(c1ccccc1)(c1ccc(OC)cc1)C=C2 (centres unmarked) [Example 5, 2-(4-methoxyphenyl)-2-phenyl-5-methoxycarbonyl-6-(cyanomethoxy)-[2H]-naphtho [1,2-b]pyran] | – | – | – | 494 nm
9 | – | COC(=O)Oc1c(C(=O)OC)c2c(c3ccccc13)OC(c1ccc(C)cc1)(c1ccc(C)cc1)C=C2 [Example 6, 2,2-bis(4-methylphenyl)-5-methoxycarbonyl-6-(methoxycarbonyloxy)-[2H]-naphtho[1,2-b]pyran] | 1.67 min | 0.17 | 0.32 Δ OD/Min | 482 nm
10 | – | COC(=O)c1c2c(c3ccccc3c1C)OC(c1ccc(OC)cc1)(c1ccc(OC)cc1)C=C2 [Example 8, 2,2-bis(4-methoxyphenyl)-5-methoxycarbonyl-6-methyl-[2H]-naphtho[1,2-b]pyran] | 3.62 min | 0.42 | 0.63 Δ OD/Min | 476 nm
11 | – | COC(=O)c1c2c(c3cc(OC)ccc3c1C)OC(c1ccc(OC)cc1)(c1ccc(OC)cc1)C=C2 [Example 9, 2,2-bis(4-methoxyphenyl)-5-methoxycarbonyl-6-methyl-9-methoxy-[2H]-naphtho[1,2-b]pyran] | 6.27 min | 0.58 | 0.58 Δ OD/Min | 522 nm
12 | – | CCC(=O)Oc1c(C(=O)OC)c2c(c3ccccc13)OC(c1ccccc1)(c1ccccc1)C=C2 [Example 10, 2,2-diphenyl-5-methoxycarbonyl-6-(propionyloxy)-[2H]-naphtho[1,2-b]pyran] | 4.28 min | 0.19 | 0.39 Δ OD/Min | 470 nm
13 | – | COC(=O)c1c2c(c3ccccc3c1OC(C)=O)OC(c1cccc(C(F)(F)F)c1)(c1cccc(C(F)(F)F)c1)C=C2 [Example 11, 2,2-bis(3-trifluoromethylphenyl)-5-methoxycarbonyl-6-acetoxy-[2H]-naphtho[1,2-b]pyran] | 3.63 min | 0.08 | 0.15 Δ OD/Min | 455 nm
14 | – | CCOC(=O)COc1c(C(=O)OC)c2c(c3ccccc13)OC(c1ccc(OC)cc1)(c1ccc3c(c1)CC(C)O3)C=C2 (centres unmarked) [Example 12, 2-(4-methoxyphenyl)-2-(2-methyl-2,3-dihydrobenzofur-5-yl)-5-methoxycarbonyl-6-ethoxycarbonylmethoxy-[2H]-naphtho[1,2-b]pyran] | 4.6 min | 0.53 | 0.83 Δ OD/Min | 517 nm
15 | 1.63 min | COC(=O)c1c2c(c3ccccc3c1OC)OC1(C=C2)C2CC3CC(C2)CC1C3 (centres unmarked) [Example 13, 2,2'-spiroadamantylene-5-methoxycarbonyl-6-methoxy-[2H]-naphtho[1,2-b]pyran] | – | – | – | –

Row | Compound | BLEACH RATE T1/2 (Table 2 comparison) | BLEACH RATE T1/2 (Table 1) | Δ OD @ SATURATION | Δ OD/Min SENSITIVITY | LAMBDA MAX of the activated (colored) form in the visible spectrum
16 | COC(=O)c1c2c(c3ccccc3c1OC(C)=O)OC(c1ccc(OC)cc1)(C(C)(C)C)C=C2 (centres unmarked) [Example 4, 2-(4-methoxyphenyl)-2-t-butyl-5-methoxycarbonyl-6-acetoxy-[2H]naphtho[1,2-b]pyran] | 7.22 min | – | – | – | –
17 | COC(=O)c1c2c(c3ccccc3c1OC(C)=O)OC(c1ccccc1)(c1ccccc1)C=C2 [Example 7, 2,2-diphenyl-5-methoxycarbonyl-6-acetoxy-[2H]-naphtho[1,2-b]pyran] | 3.67 min | – | – | – | –
